Laboratory results reported in ChEMBL document CHEMBL3045821, “Microwave-assisted synthesis of 3-indolyl substituted 4H-chromenes catalyzed by DMAP and their antimicrobial activity” (2012).
Converted amounts (≈) assume the structure as drawn.

Key:
Assay type in all cases: functional
Streptococcus pneumoniae = assay: Antibacterial activity against Streptococcus pneumoniae MTCC 1936 after 24 to 48 hr by broth microdilution method
Salmonella typhi = assay: Antibacterial activity against Salmonella enterica subsp. enterica serovar Typhi MTCC 98 after 24 to 48 hr by broth microdilution method
Vibrio cholerae = assay: Antibacterial activity against Vibrio cholerae MTCC 3906 after 24 to 48 hr by broth microdilution method
Escherichia coli = assay: Antibacterial activity against Escherichia coli MTCC 443 after 24 to 48 hr by broth microdilution method
Bacillus subtilis = assay: Antibacterial activity against Bacillus subtilis MTCC 441 after 24 to 48 hr by broth microdilution method
Clostridium tetani = assay: Antibacterial activity against Clostridium tetani MTCC 449 after 24 to 48 hr by broth microdilution method
Candida albicans = assay: Antifungal activity against Candida albicans MTCC 227 after 24 to 48 hr by broth microdilution method
Aspergillus fumigatus = assay: Antifungal activity against Aspergillus fumigatus MTCC 3008 after 24 to 48 hr by broth microdilution method

Molecule: N#CC1=C(N)OC2=C(C(=O)CCC2)C1c1c(-c2ccc(F)cc2)[nH]c2ccccc12 (stereo not drawn)
- MIC (Streptococcus pneumoniae): 200 µg/mL (≈ 501 µM)
- MIC (Salmonella typhi): 500 µg/mL (≈ 1250 µM)
- MIC (Vibrio cholerae): 250 µg/mL (≈ 626 µM)
- MIC (Escherichia coli): 500 µg/mL (≈ 1250 µM)
- MIC (Bacillus subtilis): 200 µg/mL (≈ 501 µM)
- MIC (Clostridium tetani): 500 µg/mL (≈ 1250 µM)
- MIC (Candida albicans): 500 µg/mL (≈ 1250 µM)
- MIC (Aspergillus fumigatus): 1000 µg/mL (≈ 2500 µM)

Molecule: COc1ccc(-c2[nH]c3ccccc3c2C2C(C#N)=C(N)OC3=C2C(=O)CCC3)cc1 (stereo not drawn)
- MIC (Streptococcus pneumoniae): 200 µg/mL (≈ 486 µM)
- MIC (Salmonella typhi): 200 µg/mL (≈ 486 µM)
- MIC (Vibrio cholerae): 200 µg/mL (≈ 486 µM)
- MIC (Escherichia coli): 100 µg/mL (≈ 243 µM)
- MIC (Bacillus subtilis): 250 µg/mL (≈ 608 µM)
- MIC (Clostridium tetani): 100 µg/mL (≈ 243 µM)
- MIC (Candida albicans): 500 µg/mL (≈ 1220 µM)
- MIC (Aspergillus fumigatus): 1000 µg/mL (≈ 2430 µM)

Molecule: CC1(C)CC(=O)C2=C(C1)OC(N)=C(C#N)C2c1c(-c2ccc(F)cc2)[nH]c2ccccc12 (stereo not drawn)
- MIC (Streptococcus pneumoniae): 200 µg/mL (≈ 468 µM)
- MIC (Salmonella typhi): 250 µg/mL (≈ 585 µM)
- MIC (Vibrio cholerae): 500 µg/mL (≈ 1170 µM)
- MIC (Escherichia coli): 200 µg/mL (≈ 468 µM)
- MIC (Bacillus subtilis): 100 µg/mL (≈ 234 µM)
- MIC (Clostridium tetani): 200 µg/mL (≈ 468 µM)
- MIC (Candida albicans): 1000 µg/mL (≈ 2340 µM)
- MIC (Aspergillus fumigatus): 250 µg/mL (≈ 585 µM)

Molecule: CC1(C)CC(=O)C2=C(C1)OC(N)=C(C#N)C2c1c(-c2ccc(Cl)cc2)[nH]c2ccccc12 (stereo not drawn)
- MIC (Streptococcus pneumoniae): 250 µg/mL (≈ 563 µM)
- MIC (Salmonella typhi): 200 µg/mL (≈ 451 µM)
- MIC (Vibrio cholerae): 100 µg/mL (≈ 225 µM)
- MIC (Escherichia coli): 62.5 µg/mL (≈ 141 µM)
- MIC (Bacillus subtilis): 250 µg/mL (≈ 563 µM)
- MIC (Clostridium tetani): 250 µg/mL (≈ 563 µM)
- MIC (Candida albicans): > 1000 µg/mL
- MIC (Aspergillus fumigatus): > 1000 µg/mL

Molecule: CC1(C)CC(=O)C2=C(C1)OC(N)=C(C#N)C2c1c(-c2ccc(Br)cc2)[nH]c2ccccc12 (stereo not drawn)
- MIC (Streptococcus pneumoniae): 125 µg/mL (≈ 256 µM)
- MIC (Salmonella typhi): 250 µg/mL (≈ 512 µM)
- MIC (Vibrio cholerae): 500 µg/mL (≈ 1020 µM)
- MIC (Escherichia coli): 200 µg/mL (≈ 410 µM)
- MIC (Bacillus subtilis): 200 µg/mL (≈ 410 µM)
- MIC (Clostridium tetani): 500 µg/mL (≈ 1020 µM)
- MIC (Candida albicans): 1000 µg/mL (≈ 2050 µM)
- MIC (Aspergillus fumigatus): 200 µg/mL (≈ 410 µM)

Molecule: N#CC1=C(N)OC2=C(C(=O)CCC2)C1c1c(-c2ccc(Cl)cc2)[nH]c2ccccc12 (stereo not drawn)
- MIC (Streptococcus pneumoniae): 200 µg/mL (≈ 481 µM)
- MIC (Salmonella typhi): 125 µg/mL (≈ 301 µM)
- MIC (Vibrio cholerae): 100 µg/mL (≈ 240 µM)
- MIC (Escherichia coli): 100 µg/mL (≈ 240 µM)
- MIC (Bacillus subtilis): 200 µg/mL (≈ 481 µM)
- MIC (Clostridium tetani): 500 µg/mL (≈ 1200 µM)
- MIC (Candida albicans): > 1000 µg/mL
- MIC (Aspergillus fumigatus): 1000 µg/mL (≈ 2400 µM)

Molecule: Cc1ccc(-c2[nH]c3ccccc3c2C2C(C#N)=C(N)OC3=C2C(=O)CC(C)(C)C3)cc1 (stereo not drawn)
- MIC (Streptococcus pneumoniae): 200 µg/mL (≈ 472 µM)
- MIC (Salmonella typhi): 250 µg/mL (≈ 590 µM)
- MIC (Vibrio cholerae): 500 µg/mL (≈ 1180 µM)
- MIC (Escherichia coli): 500 µg/mL (≈ 1180 µM)
- MIC (Bacillus subtilis): 250 µg/mL (≈ 590 µM)
- MIC (Clostridium tetani): 250 µg/mL (≈ 590 µM)
- MIC (Candida albicans): 500 µg/mL (≈ 1180 µM)
- MIC (Aspergillus fumigatus): 1000 µg/mL (≈ 2360 µM)

Molecule: O=C(O)c1cn(C2CC2)c2cc(N3CCNCC3)c(F)cc2c1=O [CIPROFLOXACIN]
- MIC (Streptococcus pneumoniae): 50 µg/mL (≈ 151 µM)
- MIC (Salmonella typhi): 25 µg/mL (≈ 75.4 µM)
- MIC (Vibrio cholerae): 25 µg/mL (≈ 75.4 µM)
- MIC (Escherichia coli): 25 µg/mL (≈ 75.4 µM)

Molecule: Cc1ccc(-c2[nH]c3ccccc3c2C2C(C#N)=C(N)OC3=C2C(=O)CCC3)cc1 (stereo not drawn)
- MIC (Streptococcus pneumoniae): 500 µg/mL (≈ 1260 µM)
- MIC (Salmonella typhi): 250 µg/mL (≈ 632 µM)
- MIC (Vibrio cholerae): 250 µg/mL (≈ 632 µM)
- MIC (Escherichia coli): 200 µg/mL (≈ 506 µM)
- MIC (Bacillus subtilis): 500 µg/mL (≈ 1260 µM)
- MIC (Clostridium tetani): 500 µg/mL (≈ 1260 µM)
- MIC (Candida albicans): 1000 µg/mL (≈ 2530 µM)
- MIC (Aspergillus fumigatus): 1000 µg/mL (≈ 2530 µM)

Molecule: N#CC1=C(N)OC2=C(C(=O)CCC2)C1c1c(-c2ccccc2)[nH]c2ccccc12 (stereo not drawn)
- MIC (Streptococcus pneumoniae): 500 µg/mL (≈ 1310 µM)
- MIC (Salmonella typhi): 500 µg/mL (≈ 1310 µM)
- MIC (Vibrio cholerae): 250 µg/mL (≈ 655 µM)
- MIC (Escherichia coli): 500 µg/mL (≈ 1310 µM)
- MIC (Bacillus subtilis): 500 µg/mL (≈ 1310 µM)
- MIC (Clostridium tetani): 500 µg/mL (≈ 1310 µM)
- MIC (Candida albicans): 1000 µg/mL (≈ 2620 µM)
- MIC (Aspergillus fumigatus): 500 µg/mL (≈ 1310 µM)

Molecule: N#CC1=C(N)OC2=C(C(=O)CCC2)C1c1c(-c2ccc([N+](=O)[O-])cc2)[nH]c2ccccc12 (stereo not drawn)
- MIC (Streptococcus pneumoniae): 250 µg/mL (≈ 586 µM)
- MIC (Salmonella typhi): 500 µg/mL (≈ 1170 µM)
- MIC (Vibrio cholerae): 500 µg/mL (≈ 1170 µM)
- MIC (Escherichia coli): 500 µg/mL (≈ 1170 µM)
- MIC (Bacillus subtilis): 250 µg/mL (≈ 586 µM)
- MIC (Clostridium tetani): 250 µg/mL (≈ 586 µM)
- MIC (Candida albicans): 200 µg/mL (≈ 469 µM)
- MIC (Aspergillus fumigatus): 500 µg/mL (≈ 1170 µM)

Molecule: CC1(C)CC(=O)C2=C(C1)OC(N)=C(C#N)C2c1c(-c2ccc([N+](=O)[O-])cc2)[nH]c2ccccc12 (stereo not drawn)
- MIC (Streptococcus pneumoniae): 250 µg/mL (≈ 550 µM)
- MIC (Salmonella typhi): 500 µg/mL (≈ 1100 µM)
- MIC (Vibrio cholerae): 250 µg/mL (≈ 550 µM)
- MIC (Escherichia coli): 250 µg/mL (≈ 550 µM)
- MIC (Bacillus subtilis): 500 µg/mL (≈ 1100 µM)
- MIC (Clostridium tetani): 200 µg/mL (≈ 440 µM)
- MIC (Candida albicans): 200 µg/mL (≈ 440 µM)
- MIC (Aspergillus fumigatus): 250 µg/mL (≈ 550 µM)

Molecule: COc1ccc(-c2[nH]c3ccccc3c2C2C(C#N)=C(N)OC3=C2C(=O)CC(C)(C)C3)cc1 (stereo not drawn)
- MIC (Streptococcus pneumoniae): 500 µg/mL (≈ 1140 µM)
- MIC (Salmonella typhi): 500 µg/mL (≈ 1140 µM)
- MIC (Vibrio cholerae): 500 µg/mL (≈ 1140 µM)
- MIC (Escherichia coli): 500 µg/mL (≈ 1140 µM)
- MIC (Bacillus subtilis): 500 µg/mL (≈ 1140 µM)
- MIC (Clostridium tetani): 500 µg/mL (≈ 1140 µM)
- MIC (Candida albicans): 500 µg/mL (≈ 1140 µM)
- MIC (Aspergillus fumigatus): > 1000 µg/mL

Molecule: COC1=CC(=O)C[C@@H](C)[C@]12Oc1c(Cl)c(OC)cc(OC)c1C2=O [GRISEOFULVIN]
- MIC (Candida albicans): 500 µg/mL (≈ 1420 µM)
- MIC (Aspergillus fumigatus): 100 µg/mL (≈ 283 µM)

Molecule: CC1(C)CC(=O)C2=C(C1)OC(N)=C(C#N)C2c1c(-c2ccc(S(C)(=O)=O)cc2)[nH]c2ccccc12 (stereo not drawn)
- MIC (Streptococcus pneumoniae): 500 µg/mL (≈ 1030 µM)
- MIC (Salmonella typhi): 200 µg/mL (≈ 410 µM)
- MIC (Vibrio cholerae): 500 µg/mL (≈ 1030 µM)
- MIC (Escherichia coli): 100 µg/mL (≈ 205 µM)
- MIC (Bacillus subtilis): 250 µg/mL (≈ 513 µM)
- MIC (Clostridium tetani): 125 µg/mL (≈ 256 µM)
- MIC (Candida albicans): 250 µg/mL (≈ 513 µM)
- MIC (Aspergillus fumigatus): 500 µg/mL (≈ 1030 µM)

Molecule: CC1(C)CC(=O)C2=C(C1)OC(N)=C(C#N)C2c1c(-c2ccccc2)[nH]c2ccccc12 (stereo not drawn)
- MIC (Streptococcus pneumoniae): 200 µg/mL (≈ 488 µM)
- MIC (Salmonella typhi): 500 µg/mL (≈ 1220 µM)
- MIC (Vibrio cholerae): 200 µg/mL (≈ 488 µM)
- MIC (Escherichia coli): 500 µg/mL (≈ 1220 µM)
- MIC (Bacillus subtilis): 200 µg/mL (≈ 488 µM)
- MIC (Clostridium tetani): 200 µg/mL (≈ 488 µM)
- MIC (Candida albicans): 1000 µg/mL (≈ 2440 µM)
- MIC (Aspergillus fumigatus): 500 µg/mL (≈ 1220 µM)

Molecule: N#CC1=C(N)OC2=C(C(=O)CCC2)C1c1c(-c2ccc(Br)cc2)[nH]c2ccccc12 (stereo not drawn)
- MIC (Streptococcus pneumoniae): 100 µg/mL (≈ 217 µM)
- MIC (Salmonella typhi): 200 µg/mL (≈ 434 µM)
- MIC (Vibrio cholerae): 200 µg/mL (≈ 434 µM)
- MIC (Escherichia coli): 125 µg/mL (≈ 272 µM)
- MIC (Bacillus subtilis): 200 µg/mL (≈ 434 µM)
- MIC (Clostridium tetani): 200 µg/mL (≈ 434 µM)
- MIC (Candida albicans): 500 µg/mL (≈ 1090 µM)
- MIC (Aspergillus fumigatus): 500 µg/mL (≈ 1090 µM)

Molecule: CS(=O)(=O)c1ccc(-c2[nH]c3ccccc3c2C2C(C#N)=C(N)OC3=C2C(=O)CCC3)cc1 (stereo not drawn)
- MIC (Streptococcus pneumoniae): 500 µg/mL (≈ 1090 µM)
- MIC (Salmonella typhi): 100 µg/mL (≈ 218 µM)
- MIC (Vibrio cholerae): 500 µg/mL (≈ 1090 µM)
- MIC (Escherichia coli): 100 µg/mL (≈ 218 µM)
- MIC (Bacillus subtilis): 500 µg/mL (≈ 1090 µM)
- MIC (Clostridium tetani): 100 µg/mL (≈ 218 µM)
- MIC (Candida albicans): 1000 µg/mL (≈ 2180 µM)
- MIC (Aspergillus fumigatus): 1000 µg/mL (≈ 2180 µM)

Molecule: CC1(C)S[C@@H]2[C@H](NC(=O)[C@H](N)c3ccccc3)C(=O)N2[C@H]1C(=O)O [AMPICILLIN]
- MIC (Streptococcus pneumoniae): 100 µg/mL (≈ 286 µM)
- MIC (Salmonella typhi): 100 µg/mL (≈ 286 µM)
- MIC (Vibrio cholerae): 100 µg/mL (≈ 286 µM)
- MIC (Escherichia coli): 100 µg/mL (≈ 286 µM)
- MIC (Bacillus subtilis): 250 µg/mL (≈ 715 µM)
- MIC (Clostridium tetani): 250 µg/mL (≈ 715 µM)

Molecule: CCn1cc(C(=O)O)c(=O)c2cc(F)c(N3CCNCC3)cc21 [NORFLOXACIN]
- MIC (Streptococcus pneumoniae): 10 µg/mL (≈ 31.3 µM)
- MIC (Salmonella typhi): 10 µg/mL (≈ 31.3 µM)
- MIC (Vibrio cholerae): 10 µg/mL (≈ 31.3 µM)
- MIC (Escherichia coli): 10 µg/mL (≈ 31.3 µM)
- MIC (Bacillus subtilis): 100 µg/mL (≈ 313 µM)
- MIC (Clostridium tetani): 50 µg/mL (≈ 157 µM)

Molecule: NYSTATIN
- MIC (Candida albicans): 100 µg/mL
- MIC (Aspergillus fumigatus): 100 µg/mL
